From ChEMBL document CHEMBL6127055, “Discovery of the therapeutic potential of PPARδ agonist bearing 1,3,4- thiadiazole in inflammatory disorders” (Eur J Med Chem, 2024) come the findings set out here.

Broadly, the inhibition is the percentage by which the read-out fell short of the control. Low values mean a response near the control, high ones a response far below the control. One may read the clearance as a measure of how efficiently the substance is removed, as volume per time. Read a high clearance as efficient removal. For orientation: half-life means the time needed for the level to fall by half in the phase considered. High values mean slow loss, low ones fast loss.

Data set [1] can be described thus: Metabolic stability in mouse liver microsomes assessed as compound remaining at 1 uM after 30 mins in presence of NADPH regeneration system by LC-MS/MS analysis. The data set is classed as ADME, Microsome. To be noted: read-out: Stability. (Microsomes from liver hold many membrane-bound enzymes, among them those of drug oxidation.)
Data set [2] concerns the target T1, CYP1A2 (Homo sapiens, UniProt P05177).
T1 sequence (P05177 whole entry): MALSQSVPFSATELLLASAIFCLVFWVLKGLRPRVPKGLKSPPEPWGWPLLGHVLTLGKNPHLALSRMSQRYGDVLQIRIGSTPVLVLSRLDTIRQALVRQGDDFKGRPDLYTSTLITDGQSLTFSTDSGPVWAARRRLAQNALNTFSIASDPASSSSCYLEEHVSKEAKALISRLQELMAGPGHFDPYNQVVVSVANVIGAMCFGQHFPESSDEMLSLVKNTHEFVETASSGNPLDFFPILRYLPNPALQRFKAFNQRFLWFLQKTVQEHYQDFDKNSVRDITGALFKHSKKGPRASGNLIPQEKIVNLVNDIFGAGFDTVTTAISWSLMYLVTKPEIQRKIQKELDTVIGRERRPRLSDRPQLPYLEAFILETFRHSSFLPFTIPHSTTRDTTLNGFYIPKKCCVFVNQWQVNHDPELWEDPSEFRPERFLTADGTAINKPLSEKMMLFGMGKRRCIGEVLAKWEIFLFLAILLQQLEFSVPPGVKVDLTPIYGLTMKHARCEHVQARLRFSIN
The data set can be described thus: Inhibition of CYP1A2 in human liver microsomes at 10 uM using phenacetin O-deethylase as substrate preincubated for 5 mins followed by NADPH regenerating system addition and measured after 15 mins by LC-MS/MS analysis relative to control. To be noted: probe phenacetin (phenacetin O-deethylase), time 20 min. The data set is classed as ADME, Microsome.

The target of data set [3] is T2, UGT1A9 (Homo sapiens, UniProt O60656).
T2 sequence (O60656 whole entry): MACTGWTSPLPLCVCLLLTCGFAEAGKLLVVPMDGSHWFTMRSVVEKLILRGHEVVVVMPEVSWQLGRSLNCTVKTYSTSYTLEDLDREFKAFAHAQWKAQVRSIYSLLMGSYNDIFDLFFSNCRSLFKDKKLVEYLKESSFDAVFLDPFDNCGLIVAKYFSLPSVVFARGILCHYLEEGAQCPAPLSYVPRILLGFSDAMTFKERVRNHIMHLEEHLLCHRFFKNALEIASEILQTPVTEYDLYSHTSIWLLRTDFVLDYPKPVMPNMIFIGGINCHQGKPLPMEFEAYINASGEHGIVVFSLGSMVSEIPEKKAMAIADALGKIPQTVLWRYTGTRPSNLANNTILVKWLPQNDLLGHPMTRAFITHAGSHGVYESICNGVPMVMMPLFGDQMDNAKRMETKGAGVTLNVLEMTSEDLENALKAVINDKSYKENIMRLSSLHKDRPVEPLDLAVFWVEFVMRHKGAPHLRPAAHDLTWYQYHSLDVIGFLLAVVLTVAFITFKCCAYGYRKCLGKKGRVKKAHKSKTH
The data set can be described thus: Inhibition of UGT1A9 (unknown origin) at 10 uM relative to control.

The nature of data set [4]: Stability in rat plasma assessed as compound remaining after 120 mins. The data set is classed as ADME, cell-free. The conditions noted are these: read-out: Stability.
A short description of data set [5]: Observed clearance in Sprague-Dawley rat at 1 mg/kg, iv measured after 24 hrs by LCMS analysis. To be noted: in vivo. The data set is classed as ADME, organism-based.
Data set [6] can be described thus: Half-life in Sprague-Dawley rat at 10 mg/kg, po measured after 24 hrs by LCMS analysis. The data set is classed as ADME, organism-based. To be noted: in vivo.

For the molecule `Cc1cc(SCc2nnc(-c3ccc(C(F)(F)F)cc3)s2)ccc1OCC(=O)O`, in data set [1], the remaining at 0.5 h, 1 µM was found to be 86.6%. Also, the inhibition at 0.25 h, 10 µM in data set [2] came to 12.4%. This molecule also gave an inhibition at 10 µM in data set [3] of 0.5%. In addition, in data set [4], the remaining at 2 h turned out to be 94.3%. Further, in data set [5], the clearance was 8.88 mL/min/kg. In data set [6], this molecule had a half-life of 3.4 h.
